In US20230063462A1, “SULFONIMIDAMIDE COMPOUNDS AND COMPOSITIONS FOR TREATING CONDITIONS ASSOCIATED WITH NLRP ACTIVITY” (NOVARTIS AG, priority 2019, published 2023):
Where two headings read alike, the source gives them in different places.

System: THP-1 cells
Assay: hTHP-1 assay: gramicidin-stimulated IL-1β detection in PMA-treated THP-1 cells
Format: cell-based, human
Details: 2% fetal bovine serum, read-out: hTHP-1 IC50
Experimental: The following protocol is suitable for testing the activity of the compounds disclosed herein.
1. Experimental procedure • 1.1 Cell Culture • 1) Culture THP-1 cells in the complete RPMI-1640 medium with 10% FBS at 37° C., 5% CO2. • 2) Passage the cells every 3 days by inoculating 3×10^5 cells per ml. • 1.2 Compound Preparation • Prepare the 3-fold serial dilution of the compounds with DMSO in a 384-well LDV Microplate using TECAN EVO system to generate the compound source plate with 10 concentrations. […] HC: 100 μM CRID3 (MCC950)+5 μM gramicidin LC: 5 μM Gramicidin. • 1.5 IL-1β Detection • 1) Homogenize the 5× diluent #5 with a vortex and add 1 volume of stock solution in 4 volumes of distilled water. • 2) Thaw 20× stock solution of anti-IL1β-Cryptate-antibody and anti-IL1β XL-antibody. Dilute these two antibodies to 1× with detection buffer #3. • 3) Pre-mix the two ready-to-use antibody solutions just prior to use. • 4) Dispense 4 ul of pre-mixed Anti-IL1β antibodies working solution into all wells. • 5) Seal the plate and incubate overnight at 4° C. • 6) Read the cell plate using EnVison and plot Readout vs. the test compound concentration to calculate the IC50.
2. Data Analysis: • 1. IC50 of compounds can be calculated using the following formulas • Formula for IC50
% inhibition=100−100×[HCave-Readout/(HCave−LCave)] • 2. Fit the normalized data in a dose-response manner using XLfit, and calculate the compound concentration.

[1] = Homo sapiens, THP-1, Table B1, class symbol
[2] = Homo sapiens, THP-1, Table B1, numeric value

IC50 (Table B1, class symbol) [nM]	IC50 (Table B1, numeric value) [nM]	IC50 [1] [nM]	IC50 [2] [nM]	SMILES
40 to 200	90.6			Cc1oc(S(=O)(=NC(=O)Nc2c(C(C)C)cc(F)cc2C(C)C)NC#N)cc1C(C)(C)O (single isomer, unassigned) [Example 11, (R) or (S)-N-cyano-N′-((4-fluoro-2,6-diisopropylphenyl)carbamoyl)-4-(2-hydroxypropan-2-yl)-5-methylfuran-2-sulfonimidamide]
		40 to 200	112	CC(C)(O)c1nc(CO)c(S(=O)(=NC(=O)Nc2c3c(nc4c2CCC4(C)C)CCC3)NC#N)s1 (single isomer, unassigned) [Example 13, (R) or (S)-N-cyano-N′-((3,3-dimethyl-1,2,3,5,6,7-hexahydrodicyclopenta[b,e]pyridin-8-yl)carbamoyl)-4-(hydroxymethyl)-2-(2-hydroxypropan-2-yl)thiazole-5-sulfonimidamide]
40 to 200	973			CN(C)Cc1ccc(S(=O)(=NC(=O)Nc2c3c(cc4c2CCC4)CCC3)NC#N)c(F)c1 (single isomer, unassigned) [Example 14, (S) or (R)-N-cyano-4-((dimethylamino)methyl)-2-fluoro-N′-((1,2,3,5,6,7-hexahydro-s-indacen-4-yl)carbamoyl)benzenesulfonimidamide]
200 to 1000	209			CN(C)Cc1ccc(S(=O)(=NC(=O)Nc2c3c(cc4c2CCC4)CCC3)NC#N)c(F)c1 (single isomer, unassigned) [Example 15, (R) or (S)-N-cyano-4-((dimethylamino)methyl)-2-fluoro-N′-((1,2,3,5,6,7-hexahydro-s-indacen-4-yl)carbamoyl)benzenesulfonimidamide]
200 to 1000	204			CC1CCc2c1nc1c(c2NC(=O)N=S(=O)(NC#N)c2cc(C(C)(C)O)cs2)CCC1 (single isomer, unassigned) [Example 16, (R,R) or (R,S)-N-cyano-4-(2-hydroxypropan-2-yl)-N′-(((S)-3-methyl-1,2,3,5,6,7-hexahydrodicyclopenta[b,e]pyridin-8-yl)carbamoyl)thiophene-2-sulfonimidamide]
1000 to 5000	1240			CC1CCc2c1nc1c(c2NC(=O)N=S(=O)(NC#N)c2cc(C(C)(C)O)cs2)CCC1 (single isomer, unassigned) [Example 17, (R,S) or (R,R)-N-cyano-4-(2-hydroxypropan-2-yl)-N′-(((R)-3-methyl-1,2,3,5,6,7-hexahydrodicyclopenta[b,e]pyridin-8-yl)carbamoyl)thiophene-2-sulfonimidamide]
40 to 200	80.3			CC1CCc2c1nc1c(c2NC(=O)N=S(=O)(NC#N)c2cc(C(C)(C)O)cs2)CCC1 (single isomer, unassigned) [Example 18, (S,S) or (S,R)-N-cyano-4-(2-hydroxypropan-2-yl)-N′-(((S)-3-methyl-1,2,3,5,6,7-hexahydrodicyclopenta[b,e]pyridin-8-yl)carbamoyl)thiophene-2-sulfonimidamide]
200 to 1000	705			CC1CCc2c1nc1c(c2NC(=O)N=S(=O)(NC#N)c2cc(C(C)(C)O)cs2)CCC1 (single isomer, unassigned) [Example 19, (S,R) or (S,S)-N-cyano-4-(2-hydroxypropan-2-yl)-N′-(((R)-3-methyl-1,2,3,5,6,7-hexahydrodicyclopenta[b,e]pyridin-8-yl)carbamoyl)thiophene-2-sulfonimidamide]
1000 to 5000	2750			CC(C)c1cc(C#N)c(F)c(C(C)C)c1NC(=O)N=S(=O)(NC#N)c1cnc(C(C)(C)O)s1 (single isomer, unassigned) [Example 20, (S) or (R)-N-cyano-N′-((4-cyano-3-fluoro-2,6-diisopropylphenyl)carbamoyl)-2-(2-hydroxypropan-2-yl)thiazole-5-sulfonimidamide]
40 to 200	50.8			CC(C)c1cc(C#N)c(F)c(C(C)C)c1NC(=O)N=S(=O)(NC#N)c1cnc(C(C)(C)O)s1 (single isomer, unassigned) [Example 21, (R) or (S)-N-cyano-N′-((4-cyano-3-fluoro-2,6-diisopropylphenyl)carbamoyl)-2-(2-hydroxypropan-2-yl)thiazole-5-sulfonimidamide]
		40 to 200	79.2	CC(C)c1cc(C#N)cc(C(C)C)c1NC(=O)N=S(=O)(NC#N)c1sc(C(C)(C)O)nc1CO (single isomer, unassigned) [Example 22, (R) or (S)-N-cyano-N′-((4-cyano-2,6-diisopropylphenyl)carbamoyl)-4-(hydroxymethyl)-2-(2-hydroxypropan-2-yl)thiazole-5-sulfonimidamide]
	38.9	8 to 40		CC(C)(O)c1ncc(S(=O)(=NC(=O)Nc2c3c(cc4c2CC4)CC3)NC#N)s1 (single isomer, unassigned) [Example 23, (S) or (R)-N-cyano-2-(2-hydroxypropan-2-yl)-N′-(tricyclo[6.2.0.03,6]deca-1,3(6),7-trien-2-ylcarbamoyl)thiazole-5-sulfonimidamide]
8 to 40	9.7			CC(C)(O)c1ncc(S(=O)(=NC(=O)Nc2c3c(cc4c2CC4)CC3)NC#N)s1 (single isomer, unassigned) [Example 24, (R) or (S)-N-cyano-2-(2-hydroxypropan-2-yl)-N′-(tricyclo[6.2.0.03,6]deca-1,3(6),7-trien-2-ylcarbamoyl)thiazole-5-sulfonimidamide]
	27.5	8 to 40		CC(C)(O)c1ncc(S(=O)(=NC(=O)Nc2c3c(cc4c2CC4)CCC3)NC#N)s1 (single isomer, unassigned) [Example 25, (S) or (R)-N-cyano-2-(2-hydroxypropan-2-yl)-N′-((2,4,5,6-tetrahydro-1H-cyclobuta[f]inden-3-yl)carbamoyl)thiazole-5-sulfonimidamide]
8 to 40	13.5			CC(C)(O)c1ncc(S(=O)(=NC(=O)Nc2c3c(cc4c2CC4)CCC3)NC#N)s1 (single isomer, unassigned) [Example 26, (R) or (S)-N-cyano-2-(2-hydroxypropan-2-yl)-N′-((2,4,5,6-tetrahydro-1H-cyclobuta[f]inden-3-yl)carbamoyl)thiazole-5-sulfonimidamide]
40 to 200	92.8			CC(C)(O)c1ncc(S(=O)(=NC(=O)Nc2c3c(cc4c2CCC4)CCC3)NC#N)s1 (single isomer, unassigned) [Example 27, (S) or (R)-N-cyano-N′-((1,2,3,5,6,7-hexahydro-s-indacen-4-yl)carbamoyl)-2-(2-hydroxypropan-2-yl)thiazole-5-sulfonimidamide]
8 to 40	30.8			CC(C)(O)c1ncc(S(=O)(=NC(=O)Nc2c3c(cc4c2CCC4)CCC3)NC#N)s1 (single isomer, unassigned) [Example 28, (R) or (S)-N-cyano-N′-((1,2,3,5,6,7-hexahydro-s-indacen-4-yl)carbamoyl)-2-(2-hydroxypropan-2-yl)thiazole-5-sulfonimidamide]
40 to 200	58.2			CC(C)(O)c1coc(S(=O)(=NC(=O)Nc2c3c(cc4c2CCC4)CCC3)NC#N)c1 (single isomer, unassigned) [Example 29, (R) or (S)-N-cyano-N′-(1,2,3,5,6,7-hexahydro-s-indacen-4-ylcarbamoyl)-4-(2-hydroxypropan-2-yl)furan-2-sulfonimidamide]
8 to 40	16.7			CC(C)(O)c1coc(S(=O)(=NC(=O)Nc2c3c(cc4c2CCC4)CCC3)NC#N)c1 (single isomer, unassigned) [Example 30, (S) or (R)-N-cyano-N′-((1,2,3,5,6,7-hexahydro-s-indacen-4-yl)carbamoyl)-4-(2-hydroxypropan-2-yl)furan-2-sulfonimidamide]
8 to 40	33.8			CC(C)(O)c1cccc(S(=O)(=NC(=O)Nc2c3c(cc4c2CCC4)CCC3)NC#N)c1 (single isomer, unassigned) [Example 31, (S) or (R)-N-cyano-N′-((1,2,3,5,6,7-hexahydro-s-indacen-4-yl)carbamoyl)-3-(2-hydroxypropan-2-yl)benzenesulfonimidamide]
40 to 200	79.5			CC(C)(O)c1cccc(S(=O)(=NC(=O)Nc2c3c(cc4c2CCC4)CCC3)NC#N)c1 (single isomer, unassigned) [Example 32, (R) or (S)-N-cyano-N′-((1,2,3,5,6,7-hexahydro-s-indacen-4-yl)carbamoyl)-3-(2-hydroxypropan-2-yl)benzenesulfonimidamide]
1000 to 5000	1530			N#CNS(=O)(=NC(=O)Nc1c2c(cc3c1CCC3)CCC2)c1ccccc1 (single isomer, unassigned) [Example 33, (S) or (R)-N-cyano-N′-((1,2,3,5,6,7-hexahydro-s-indacen-4-yl)carbamoyl)benzenesulfonimidamide]
200 to 1000	355			N#CNS(=O)(=NC(=O)Nc1c2c(cc3c1CCC3)CCC2)c1ccccc1 (single isomer, unassigned) [Example 34, (R) or (S)-N-cyano-N′-((1,2,3,5,6,7-hexahydro-s-indacen-4-yl)carbamoyl)benzenesulfonimidamide]
